The record followed here is ChEMBL document CHEMBL1201862, “PubChem BioAssay data set” (2004).

In general, IC50 refers to the concentration needed to halve the response being measured. The term AC50 denotes the concentration at which the activity in the assay is half-maximal. For orientation: EC50 means the concentration that produces a half-maximal response. What is called Ki is the dissociation constant of the complex between target and ligand, obtained from inhibition or displacement.

Activity calls are given as the source filed them. Some results are limits rather than exact numbers.

One test concerns CHO. The test can be described thus: cytotoxicity in TLR9-MyD88 CHO cells, dose response, cytotoxicity control for TLR9-MyD88 binding inhibitor project, cell-based, luminescence (AID 588339).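 Further: CHO cells stably coexpressing TLR9 and MyD88 fusions from primary screen; compound exposure lasted 48 hours before viability readout.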 It is filed as functional, hamster. The note with it: Cricetulus griseus.
Test [1] deals with Voltage-gated N-type calcium channel alpha-1B subunit/Amyloid beta A4 precursor protein-binding family A member 1 (Homo sapiens, UniProt Q00975+Q02410). Format: protein assay.
Another test addresses Fatty acid synthase (Homo sapiens, UniProt P49327). Put plainly: FAS thioesterase domain inhibitors, dose response, biochemical, endpoint fluorescence intensity, uHTS hits (AID 624327).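 Further: fluorescence from hydrolysis of an O-methyl fluorescein acyl ester substrate by the enzyme.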 It is filed as functional.
The target of test [2] is Sphingosine 1-phosphate receptor 1 (Homo sapiens, UniProt P21453). Format: functional.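 Further: Tango beta-arrestin reporter U2OS cells stimulated with S1P near its EC80; inhibitor potency meaning antagonism of receptor activation by the natural agonist.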
Test [3] in a line: non-specific cell cytotoxicity, dose response, cytotoxicity control for PAX8 inhibitor project, plate reader, dry powder samples (AID 743021). Format: functional, cell-based.
In the next test the target is Beta Lactamase (Pseudomonas aeruginosa, UniProt Q932Y6). The test can be described thus: beta-lactamase reporter inhibitor potency, dose response, artefact control for TLR9-MyD88 binding inhibitor project, BLA reporter cells, FRET fluorescence (AID 588341).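 Further: cell based assay in CHO-K1 cells stably expressing beta-lactamase.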 Format: cell-based.
In a further test the target is Procathepsin L (Homo sapiens, UniProt P07711).
The target in a further test is Albumin (Bos taurus, UniProt P02769). The test can be described thus: Counterscreen for inhibitors of T-cell receptor (TCR)-CD3 interaction: Fluorescence-based biochemical high throughput dose response assay to identify inhibitors of T-cell receptor (TCR)-CD3 interaction using a TAMRA-labeled BSA probe. It is filed as functional.
For test [4], the target named is Intestinal-type alkaline phosphatase (Mus musculus, UniProt P24822). The test can be described thus: mouse intestinal alkaline phosphatase activators, dose response, biochemical, luminescence, uHTS hits (AID 488783). It is filed as functional.
Test [5] has as its target T1, Alkaline phosphatase, tissue-nonspecific isozyme (Homo sapiens, UniProt P05186).
T1 sequence (P05186 whole entry): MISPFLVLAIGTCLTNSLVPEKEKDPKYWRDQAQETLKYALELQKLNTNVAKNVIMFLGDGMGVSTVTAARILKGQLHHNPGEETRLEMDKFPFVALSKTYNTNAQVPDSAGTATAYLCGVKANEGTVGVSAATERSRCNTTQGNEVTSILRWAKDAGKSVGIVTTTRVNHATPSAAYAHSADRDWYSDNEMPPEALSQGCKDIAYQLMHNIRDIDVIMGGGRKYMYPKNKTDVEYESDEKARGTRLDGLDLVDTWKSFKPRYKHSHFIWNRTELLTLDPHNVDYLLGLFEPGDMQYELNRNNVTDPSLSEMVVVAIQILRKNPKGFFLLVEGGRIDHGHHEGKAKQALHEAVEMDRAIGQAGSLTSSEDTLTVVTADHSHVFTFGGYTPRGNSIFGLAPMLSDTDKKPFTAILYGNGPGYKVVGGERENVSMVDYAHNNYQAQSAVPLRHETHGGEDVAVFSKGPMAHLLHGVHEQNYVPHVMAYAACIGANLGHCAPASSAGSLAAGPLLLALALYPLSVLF
Put plainly: TNAP enzyme activators, dose response, selectivity assay for mouse IAP activator project, biochemical, TNAP isozyme, mouse IAP uHTS hits (AID 488880). It is filed as functional.

Test [6] concerns the target Rho-associated protein kinase 1 (Homo sapiens, UniProt Q13464). Format: functional.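 Further: measured within a broad kinome-wide panel profiling many kinases.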
For test [7], the target named is Hepatocyte growth factor receptor (Homo sapiens, UniProt P08581). It is filed as functional.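 Further: kinase panel profiling across the kinome, with MET as the panel member.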
Test [8] has as its target Testis-specific serine/threonine-protein kinase 1 (Homo sapiens, UniProt Q9BXA7). Format: functional.
Test [9] addresses Mitogen-activated protein kinase 12 (Homo sapiens, UniProt P53778). Format: functional.
In another test the target is Aurora kinase A (Homo sapiens, UniProt O14965). Format: functional.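 Further: value from the Navigating the Kinome kinase panel profiling, panel entry STK6.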
Test [10] concerns the target Interleukin-1 receptor-associated kinase 4 (Homo sapiens, UniProt Q9NWZ3). It is filed as functional.
Test [11] concerns the target Death-associated protein kinase 3 (Homo sapiens, UniProt O43293). It is filed as functional.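 Further: measured as one member of a kinome-wide profiling panel.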
The target in test [12] is Mitogen-activated protein kinase 9 (Homo sapiens, UniProt P45984). It is filed as functional.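 Further: value from a kinome panel profiling assay, MAPK9 panel entry.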
Test [13] has as its target Serine/threonine-protein kinase 17A (Homo sapiens, UniProt Q9UEE5). Format: functional.
Test [14] deals with Dual specificity protein kinase CLK2 (Homo sapiens, UniProt P49760). It is filed as functional.
Test [15] deals with Ribosomal protein S6 kinase alpha-3 (Homo sapiens, UniProt P51812). It is filed as functional.
In test [16] the target is Homeodomain-interacting protein kinase 4 (Homo sapiens, UniProt Q8NE63). Format: functional.
The target in test [17] is 3-phosphoinositide-dependent protein kinase 1 (Homo sapiens, UniProt O15530). It is filed as functional.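 Further: value comes from the Navigating the Kinome panel, PDPK1 member.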
In test [18] the target is MAP kinase-activated protein kinase 2 (Homo sapiens, UniProt P49137). It is filed as functional.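 Further: measured as one member of a kinome-wide kinase panel.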
In test [19] the target is Serine/threonine-protein kinase BRSK1 (Homo sapiens, UniProt Q8TDC3). It is filed as functional.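 Further: measured within a kinome-wide kinase panel, with the target listed as KIAA1811.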
Test [20] has as its target Serine/threonine-protein kinase TAO1 (Homo sapiens, UniProt Q7L7X3). Format: functional.
Test [21] addresses Serine/threonine-protein kinase D2 (Homo sapiens, UniProt Q9BZL6). It is filed as functional.
The target of test [22] is Receptor-type tyrosine-protein kinase FLT3 (Homo sapiens, UniProt P36888). It is filed as functional.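 Further: FLT3 was tested as one member of a kinome-wide kinase panel.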
The target in test [23] is Mitogen-activated protein kinase 8 (Homo sapiens, UniProt P45983). It is filed as functional.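 Further: value comes from one member of a kinome-wide kinase profiling panel.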
The target in test [24] is 5'-AMP-activated protein kinase catalytic subunit alpha-1 (Homo sapiens, UniProt Q13131). It is filed as functional.
For test [25], the target named is Serine/threonine-protein kinase pim-1 (Homo sapiens, UniProt P11309). It is filed as functional.
Test [26] concerns the target Fibroblast growth factor receptor 3 (Homo sapiens, UniProt P22607). It is filed as functional.
Test [27] addresses Serine/threonine-protein kinase PAK 4 (Homo sapiens, UniProt O96013). Format: functional.
The target of test [28] is Non-receptor tyrosine-protein kinase TYK2 (Homo sapiens, UniProt P29597). It is filed as functional.
The next test concerns the target Beta-galactosidase (Escherichia coli, UniProt Q8VNN2). The test can be described thus: beta-galactosidase enzyme inhibitors and activators, dose response, artefact control for CCR6 antagonist project, biochemical, E. coli enzyme, set 3 (AID 504712). It is filed as functional.
Test [29] has as its target C-C chemokine receptor type 6 (Homo sapiens, UniProt P51684). Put plainly: CCR6 receptor antagonists, dose response, cell-based, luminescent beta-arrestin readout (AID 504728). Format: functional.

Sequence of Mitogen-activated protein kinase 9 (P45984 whole entry): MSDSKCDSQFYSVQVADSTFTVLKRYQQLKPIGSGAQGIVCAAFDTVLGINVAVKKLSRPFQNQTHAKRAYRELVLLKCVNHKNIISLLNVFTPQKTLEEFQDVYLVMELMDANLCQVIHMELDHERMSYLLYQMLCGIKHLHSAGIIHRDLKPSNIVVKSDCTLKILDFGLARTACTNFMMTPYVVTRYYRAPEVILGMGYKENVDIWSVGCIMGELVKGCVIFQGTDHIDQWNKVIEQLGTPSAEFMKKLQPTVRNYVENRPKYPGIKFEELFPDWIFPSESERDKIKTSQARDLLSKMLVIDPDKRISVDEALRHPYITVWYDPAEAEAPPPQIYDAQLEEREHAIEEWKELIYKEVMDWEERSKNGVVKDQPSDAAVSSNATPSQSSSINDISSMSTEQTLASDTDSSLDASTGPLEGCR
Sequence of Homeodomain-interacting protein kinase 4 (Q8NE63 whole entry): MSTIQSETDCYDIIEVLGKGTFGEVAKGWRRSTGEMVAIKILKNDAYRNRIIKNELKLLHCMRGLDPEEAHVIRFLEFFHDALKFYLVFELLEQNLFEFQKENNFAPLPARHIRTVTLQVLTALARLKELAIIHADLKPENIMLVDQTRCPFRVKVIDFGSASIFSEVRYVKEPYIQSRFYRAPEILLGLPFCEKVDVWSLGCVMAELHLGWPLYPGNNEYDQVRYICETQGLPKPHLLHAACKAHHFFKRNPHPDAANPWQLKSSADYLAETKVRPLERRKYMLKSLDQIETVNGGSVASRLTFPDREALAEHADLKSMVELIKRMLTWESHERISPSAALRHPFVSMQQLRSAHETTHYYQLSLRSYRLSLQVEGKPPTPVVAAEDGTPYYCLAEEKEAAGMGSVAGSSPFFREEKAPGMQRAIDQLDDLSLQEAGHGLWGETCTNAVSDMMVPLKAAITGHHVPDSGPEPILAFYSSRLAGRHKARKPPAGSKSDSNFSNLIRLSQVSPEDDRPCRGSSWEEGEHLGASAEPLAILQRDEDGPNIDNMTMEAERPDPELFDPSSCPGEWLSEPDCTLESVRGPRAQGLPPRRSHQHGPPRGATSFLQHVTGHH
Sequence of Serine/threonine-protein kinase TAO1 (Q7L7X3 whole entry): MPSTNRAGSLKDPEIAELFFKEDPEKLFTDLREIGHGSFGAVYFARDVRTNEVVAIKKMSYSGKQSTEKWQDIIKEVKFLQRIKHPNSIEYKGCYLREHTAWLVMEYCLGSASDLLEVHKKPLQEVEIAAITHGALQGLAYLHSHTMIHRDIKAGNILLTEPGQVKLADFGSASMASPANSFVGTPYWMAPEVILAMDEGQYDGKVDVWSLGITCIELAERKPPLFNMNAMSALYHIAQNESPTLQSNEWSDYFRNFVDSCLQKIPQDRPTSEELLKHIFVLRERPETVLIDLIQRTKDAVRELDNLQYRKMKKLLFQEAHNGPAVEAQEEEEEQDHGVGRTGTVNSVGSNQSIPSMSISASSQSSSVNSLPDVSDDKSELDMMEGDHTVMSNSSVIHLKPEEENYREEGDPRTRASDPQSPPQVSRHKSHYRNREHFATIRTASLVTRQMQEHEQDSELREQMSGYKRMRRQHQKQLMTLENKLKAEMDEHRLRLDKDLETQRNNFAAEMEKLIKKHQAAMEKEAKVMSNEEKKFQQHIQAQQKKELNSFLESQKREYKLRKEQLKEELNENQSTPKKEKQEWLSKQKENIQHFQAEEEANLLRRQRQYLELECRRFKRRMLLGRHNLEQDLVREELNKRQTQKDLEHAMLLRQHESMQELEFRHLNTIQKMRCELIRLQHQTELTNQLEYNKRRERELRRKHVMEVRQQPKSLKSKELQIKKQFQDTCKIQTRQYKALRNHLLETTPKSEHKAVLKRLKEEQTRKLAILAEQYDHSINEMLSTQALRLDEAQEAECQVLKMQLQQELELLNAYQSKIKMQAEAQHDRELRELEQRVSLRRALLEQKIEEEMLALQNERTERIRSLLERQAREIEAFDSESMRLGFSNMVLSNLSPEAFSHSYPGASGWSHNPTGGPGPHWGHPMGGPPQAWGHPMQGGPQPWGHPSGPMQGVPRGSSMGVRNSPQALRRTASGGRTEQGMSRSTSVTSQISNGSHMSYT
Sequence of Serine/threonine-protein kinase D2 (Q9BZL6 whole entry): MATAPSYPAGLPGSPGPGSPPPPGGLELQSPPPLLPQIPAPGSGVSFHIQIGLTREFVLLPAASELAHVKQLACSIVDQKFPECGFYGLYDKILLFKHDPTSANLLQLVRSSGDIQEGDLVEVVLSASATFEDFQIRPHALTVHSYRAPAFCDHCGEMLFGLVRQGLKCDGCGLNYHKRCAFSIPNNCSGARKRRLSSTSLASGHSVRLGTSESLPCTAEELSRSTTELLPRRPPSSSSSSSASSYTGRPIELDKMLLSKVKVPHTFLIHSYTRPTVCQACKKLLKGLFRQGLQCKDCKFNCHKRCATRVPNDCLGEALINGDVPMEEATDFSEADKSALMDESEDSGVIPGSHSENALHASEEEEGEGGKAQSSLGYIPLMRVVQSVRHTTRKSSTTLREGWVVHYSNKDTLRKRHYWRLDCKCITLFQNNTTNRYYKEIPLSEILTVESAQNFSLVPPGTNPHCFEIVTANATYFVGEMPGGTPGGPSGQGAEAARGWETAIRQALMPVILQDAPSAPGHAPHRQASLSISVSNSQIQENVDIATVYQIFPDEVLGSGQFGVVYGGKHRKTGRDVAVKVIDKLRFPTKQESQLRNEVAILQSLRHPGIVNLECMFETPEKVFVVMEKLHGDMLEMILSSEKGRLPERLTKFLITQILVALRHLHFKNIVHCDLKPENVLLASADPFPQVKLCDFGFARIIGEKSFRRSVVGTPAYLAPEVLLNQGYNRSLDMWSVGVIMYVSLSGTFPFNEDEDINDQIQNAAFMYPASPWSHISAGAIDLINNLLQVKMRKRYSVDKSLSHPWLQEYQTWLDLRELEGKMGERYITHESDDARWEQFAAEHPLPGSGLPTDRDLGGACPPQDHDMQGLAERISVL
Sequence of Aurora kinase A (O14965 whole entry): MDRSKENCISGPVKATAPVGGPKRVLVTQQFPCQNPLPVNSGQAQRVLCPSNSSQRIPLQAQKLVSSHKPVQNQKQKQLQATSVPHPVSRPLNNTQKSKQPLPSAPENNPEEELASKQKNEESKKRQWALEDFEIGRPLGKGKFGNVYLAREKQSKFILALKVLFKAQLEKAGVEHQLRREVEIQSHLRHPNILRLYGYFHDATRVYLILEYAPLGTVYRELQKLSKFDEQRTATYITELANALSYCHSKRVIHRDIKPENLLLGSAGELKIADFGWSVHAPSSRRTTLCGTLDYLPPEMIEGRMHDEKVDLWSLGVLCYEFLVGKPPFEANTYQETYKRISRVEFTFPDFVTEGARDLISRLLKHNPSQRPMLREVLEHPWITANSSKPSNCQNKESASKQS
Sequence of Testis-specific serine/threonine-protein kinase 1 (Q9BXA7 whole entry): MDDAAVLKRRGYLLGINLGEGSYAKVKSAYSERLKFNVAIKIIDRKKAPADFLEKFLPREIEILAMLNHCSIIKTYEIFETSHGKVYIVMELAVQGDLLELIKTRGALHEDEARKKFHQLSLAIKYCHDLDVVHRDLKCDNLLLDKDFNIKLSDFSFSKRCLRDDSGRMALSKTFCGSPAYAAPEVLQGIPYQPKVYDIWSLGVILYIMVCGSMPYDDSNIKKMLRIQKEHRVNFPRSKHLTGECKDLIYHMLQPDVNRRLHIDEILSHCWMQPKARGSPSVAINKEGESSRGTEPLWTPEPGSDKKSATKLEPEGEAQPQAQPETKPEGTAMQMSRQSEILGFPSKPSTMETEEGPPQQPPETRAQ
Sequence of Rho-associated protein kinase 1 (Q13464 whole entry): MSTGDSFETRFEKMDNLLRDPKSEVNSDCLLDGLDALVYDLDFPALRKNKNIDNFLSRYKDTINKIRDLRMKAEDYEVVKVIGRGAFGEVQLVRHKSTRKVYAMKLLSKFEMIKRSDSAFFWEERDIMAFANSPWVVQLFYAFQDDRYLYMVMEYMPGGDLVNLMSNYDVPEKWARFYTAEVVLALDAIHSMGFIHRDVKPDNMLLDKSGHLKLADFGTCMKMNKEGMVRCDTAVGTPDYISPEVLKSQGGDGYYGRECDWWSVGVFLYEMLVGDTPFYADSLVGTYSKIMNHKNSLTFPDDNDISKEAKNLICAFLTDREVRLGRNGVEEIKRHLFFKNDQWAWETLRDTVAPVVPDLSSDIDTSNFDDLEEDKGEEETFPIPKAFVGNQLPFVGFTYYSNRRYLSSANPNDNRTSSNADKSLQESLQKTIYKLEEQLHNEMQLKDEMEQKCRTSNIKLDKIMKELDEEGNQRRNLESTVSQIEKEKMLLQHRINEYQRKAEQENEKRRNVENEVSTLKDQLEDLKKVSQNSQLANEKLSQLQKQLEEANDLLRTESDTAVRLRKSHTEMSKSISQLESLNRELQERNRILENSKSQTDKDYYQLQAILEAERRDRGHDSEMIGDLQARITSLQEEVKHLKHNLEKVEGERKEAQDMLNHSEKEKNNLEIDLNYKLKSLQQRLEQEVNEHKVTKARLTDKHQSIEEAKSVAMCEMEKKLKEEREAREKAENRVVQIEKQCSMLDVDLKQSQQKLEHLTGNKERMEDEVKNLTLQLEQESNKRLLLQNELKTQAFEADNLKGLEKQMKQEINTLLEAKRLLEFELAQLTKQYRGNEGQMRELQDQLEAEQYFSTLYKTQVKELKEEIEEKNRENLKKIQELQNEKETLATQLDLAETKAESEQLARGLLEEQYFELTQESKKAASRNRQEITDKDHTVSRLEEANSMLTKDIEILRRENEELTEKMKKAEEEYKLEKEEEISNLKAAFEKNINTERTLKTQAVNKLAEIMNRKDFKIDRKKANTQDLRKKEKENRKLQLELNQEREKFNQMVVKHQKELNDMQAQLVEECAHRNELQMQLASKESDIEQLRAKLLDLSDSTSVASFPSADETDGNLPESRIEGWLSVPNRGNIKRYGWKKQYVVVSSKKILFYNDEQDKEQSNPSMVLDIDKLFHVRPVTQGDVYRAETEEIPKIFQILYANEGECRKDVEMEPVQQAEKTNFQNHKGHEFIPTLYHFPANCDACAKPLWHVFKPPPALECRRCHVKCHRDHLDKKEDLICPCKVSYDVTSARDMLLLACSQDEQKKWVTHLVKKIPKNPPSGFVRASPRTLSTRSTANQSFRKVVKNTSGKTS

Regarding `CC(=O)N(C1=C(Cl)C(=O)c2ccccc2C1=O)C1CCCCC1`, the IC50 is 802 nM (active) in the test with CHO; 3650 nM (active) in test [1]; 3020 nM (active) on Fatty acid synthase; 9500 nM (active) in [2]; 5300 nM (active) at Beta Lactamase. In addition, in test [3], the AC50 was 21500 nM (active).
In the case of `Oc1ccc(-c2cn3c(n2)SCC3)cc1O`, the IC50 against Procathepsin L was > 59600 nM (not active); on Albumin, > 94100 nM (inactive). The EC50 in [4] is 21000 nM (active); in [5], 70900 nM (active).
Turning to `O=C1Nc2ccc3ncsc3c2C1=CNc1ccc(S(=O)(=O)Nc2ccccn2)cc1`, the Ki was 316 nM (active) in test [6]; 200 nM (active) in [7]; 316 nM (active) in test [8]; 3160 nM (active) in [9]; 15.8 nM (active) on Aurora kinase A; 1580 nM (active) in [10]. Further, the Ki was 79.4 nM (active) in test [11]; 126 nM (active) in test [12]; 3.98 nM (active) in [13]; 50.1 nM (active) in [14]; 39.8 nM (active) in test [15]; 2000 nM (active) in [16]. Also, the inhibitory constant (Ki) is 15.8 nM (active) in test [17]; 1260 nM (active) in test [18]; 12.6 nM (active) in test [19]; 1580 nM (active) in [20]; 50.1 nM (active) in [21]; 3.16 nM (active) in test [22]. Moreover, the Ki was 126 nM (active) in test [23]; 3.98 nM (active) in test [24]; 1580 nM (active) in test [25]; 12.6 nM (active) in test [26]; 200 nM (active) in test [27]; 251 nM (active) in test [28].
For the compound `Cc1ccc(NC2=C/C(=N\S(=O)(=O)c3cccs3)c3ccccc3C2=O)c(C)c1`, the IC50 (at Beta-galactosidase; in test [29]) was > 66600 nM (inactive) throughout.
